Data published in patent publication EP0081122B1, “Carrier tripeptides with antifungal activity” (Helopharm W. Petrik GmbH & Co.KG., priority 1982, dated 1985).

Assays:
Candida albicans = assay: Growth inhibition / minimal inhibitory concentration in yeast nitrogen base medium; format: cell-based
Protocol: Die weiteren Untersuchungen dieser fünf Tripeptide gegenüber Cadida albicans und Candida pseudotropicalis in »yeast nitrogen base« Medium mit einer Zellzahl von 10^4/ml zu Testbeginn führten zu dem Ergebnis, daß diese Tripeptide keinerlei Wachstumshemmung zeigen. Die Tripeptide werden dabei bis zu einer Konzentration von 10 mg/ml Testmedium beurteilt. Bei den Tripeptiden L-Arg-D-Val-L-Phe und L-Arg-D-Ala-L-Phe werden im Gegenteil sogar Wachstumsförderung von Candida albicans festgestellt.
In der beigefügten Tabelle I sind die kleinsten inhibierenden Konzentrationen der beiden beispielsweisen erfindungsgemäßen Tripeptide 1 und 2 denjenigen der freien Antimetaboliten gegenübergestellt anhand des Beispiels candida albicans. Die Untersuchungen wurden in einem yeast nitrogen base Medium mit einem Glukosegehalt von 2% und einem pH-Wert von 7,2 durchgeführt. Die Zellzahl zu Versuchsbeginn beläuft sich auf 10^4/ml. Die Tests werden in Mikrotiterschalen durchgeführt und es wird 24 Stunden bei 30° C inkubiert.

einigen Bakterien = assay: Antibacterial activity of free amino acid antagonists; format: cell-based; conditions: lost when built into the tripeptides
[1] = dissertation Universität Tübingen 1975; cited from earlier work

Row | Compound | Wirksamkeit gegenüber einigen Bakterien (einigen Bakterien) | durch Carboxypeptidasen spaltbar (Carboxypeptidasen) | other results
1 | NC(Cc1ccc(F)cc1)C(=O)O (racemic) [p-F-DL-Phenylalanin] | Wirksamkeit zeigen |  | Wirksamkeit gegen candida albicans (Candida albicans): nicht wirksam; MIC (Candida albicans; 24 h, all tested Candida albicans isolates, read-out: inhibierende Konzentration): > 256 µg/mL
2 | N=C(N)NCCC[C@H](N)C(=O)NC(Cc1ccc(F)cc1)C(=O)N[C@@H](Cc1ccccc1)C(N)=O (mixture of isomers) [Verbindung 4, L-Arginyl-DL-(p-fluorphenylalanyl)-L-phenylalaninamid] |  | schwerer spaltbar | 
3 | L-Arginyl-D-allothreonyl-L-phenylalanin |  |  | antifungische Wirksamkeit [1]: antifungische Wirksamkeit
4 | NC(Cc1cccs1)C(=O)O (racemic) [β-2-DL-Thienylalanin] | Wirksamkeit zeigen |  | 
5 | CC(=O)N[C@@H](CCCNC(=N)N)C(=O)NC(Cc1ccc(F)cc1)C(=O)N[C@@H](Cc1ccccc1)C(=O)O (mixture of isomers) [Verbindung 3, N 1-Acetyl-L-arginyl-DL-(p-fluorphenylalanyl)-L-phenyialanin] |  | schwerer spaltbar | 
